For the assay, the system named is P388 leukemia ip, CD2F1 mice, survival T/C. Kind of assay: NCI In Vivo Anticancer Drug Screen. Data for tumor model P388 Leukemia (intraperitoneal) in CD2F1 (CDF1) mice. Conditions: endpoint: median survival time, higher = longer survival. The method, boiled down:
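Mice carrying the transplanted tumor received test compound or vehicle. Survival was recorded in each group, and the value is the treated-group measurement divided by that of the vehicle-treated control group.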

Setting [1] is: dose: 6.25 mg/kg/injection, schedule: Q01DX009 (ip), vehicle: saline.
Setting [2] is: dose: 12.5 mg/kg/injection, schedule: Q01DX009 (ip), vehicle: saline.
[3] abbreviates: dose: 25.0 mg/kg/injection, schedule: Q01DX009 (ip), vehicle: saline.
Setting [4] is: dose: 50.0 mg/kg/injection, schedule: Q01DX009 (ip), vehicle: saline.
Setting [5] is: dose: 100.0 mg/kg/injection, schedule: Q01DX009 (ip), vehicle: saline.
[6] abbreviates: dose: 50.0 mg/kg/injection, schedule: Q01DX005 (ip), vehicle: saline with Tween-80.
[7] abbreviates: dose: 25.0 mg/kg/injection, schedule: Q01DX009 (ip), vehicle: Klucel (hydroxypropylcellulose) (HPC).
[8] abbreviates: dose: 50.0 mg/kg/injection, schedule: Q01DX005 (ip), vehicle: Klucel (hydroxypropylcellulose) (HPC).
[9] abbreviates: dose: 60.0 mg/kg/injection, schedule: Q01DX005 (ip), vehicle: saline with Tween-80.
Setting [10] is: dose: 120.0 mg/kg/injection, schedule: Q01DX005 (ip), vehicle: saline with Tween-80.
The mark [11] stands for this setting: dose: 100.0 mg/kg/injection, schedule: Q04DX002 (ip), vehicle: saline with Tween-80.
Where [12] appears, read: dose: 50.0 mg/kg/injection, schedule: Q01DX009 (ip), vehicle: saline with Tween-80.
[13] abbreviates: dose: 100.0 mg/kg/injection, schedule: Q01DX009 (ip), vehicle: saline with Tween-80.
Where [14] appears, read: dose: 200.0 mg/kg/injection, schedule: Q01DX009 (ip), vehicle: saline with Tween-80.
Setting [15] is: dose: 100.0 mg/kg/injection, schedule: Q01DX005 (ip), vehicle: saline with Tween-80.
Where [16] appears, read: dose: 200.0 mg/kg/injection, schedule: Q01DX005 (ip), vehicle: saline with Tween-80.
Where [17] appears, read: dose: 240.0 mg/kg/injection, schedule: Q01DX005 (ip), vehicle: saline with Tween-80.

Molecules are shown by their SMILES. Values joined by “and” are separate entries in the source; they are usually repeats but may differ in a detail not shown here. Identical values can stand only once. Inconclusive results and toxic doses are left out.

The values below come from PubChem BioAssay AID330 (DTP/NCI, 2004).

Regarding `CCC(=O)NC(CC(C)C)C(=O)NC(CC(C)C)C(=O)NC(C=O)CCCN=C(N)N` (stereo unspecified) (tested in a mixture with another compound), the T/C runs as follows: under setting [1], 103 % of control; under setting [2], 102 % of control and 104 % of control; under setting [3], 104 % of control and 96 % of control; under setting [4], 102 % of control and 108 % of control; under setting [5], 110 % of control.

With `COC(=O)C1=C(OC(C)=O)c2ccccc2CS1`, the T/C reads like this: (dose: 50.0 mg/kg/injection, schedule: Q01DX001 (ip), vehicle: Klucel (hydroxypropylcellulose) (HPC)) 98 % of control; (dose: 100.0 mg/kg/injection, schedule: Q01DX001 (ip), vehicle: Klucel (hydroxypropylcellulose) (HPC)) 92 % of control; (dose: 200.0 mg/kg/injection, schedule: Q01DX001 (ip), vehicle: Klucel (hydroxypropylcellulose) (HPC)) 96 % of control.

Consider `O=C(OCCCCI)c1ccccc1`, for which the T/C (dose: 25.0 mg/kg/injection, schedule: Q01DX009 (ip), vehicle: saline + Tween-80 + alcohol) is 105 % of control; the T/C (dose: 50.0 mg/kg/injection, schedule: Q01DX009 (ip), vehicle: saline + Tween-80 + alcohol) is 103 % of control; the T/C (dose: 100.0 mg/kg/injection, schedule: Q01DX009 (ip), vehicle: saline + Tween-80 + alcohol) was 104 % of control; the T/C (dose: 2000.0 mg/kg/injection, schedule: Q01DX009 (ip), vehicle: saline + Tween-80 + alcohol) is 114 % of control.

On to `COc1ccc2c(c1OC)C(=C(Cl)Cl)N1CCc3cc4c(cc3C1=C2C=O)OCO4`, for which the T/C runs as follows: (dose: 12.5 mg/kg/injection, schedule: Q01DX005 (ip), vehicle: saline with Tween-80) 98 % of control; (dose: 25.0 mg/kg/injection, schedule: Q01DX005 (ip), vehicle: saline with Tween-80) 92 % of control; under setting [6], 90 % of control and 96 % of control.

On to `C[n+]1ccccc1-c1nc(-c2cccc[n+]2C)nc(-c2cccc[n+]2C)n1`, for which the T/C was 96 % of control (dose: 12.5 mg/kg/injection, schedule: Q01DX009 (ip), vehicle: Klucel (hydroxypropylcellulose) (HPC)) and 88 % of control under setting [7].

`N/N=C(/N)[Se]`: the T/C runs as follows: under setting [1], 101 % of control; under setting [2], 90 % of control.

Turning to `CN(C)CCC(/C=C/c1ccco1)=N\NC(=S)Nc1ccc(Cl)cc1`, the T/C (dose: 100.0 mg/kg/injection, schedule: Q01DX001 (ip), vehicle: saline with Tween-80) is 97 % of control; the T/C (dose: 200.0 mg/kg/injection, schedule: Q01DX001 (ip), vehicle: saline with Tween-80) was 101 % of control; the T/C (dose: 400.0 mg/kg/injection, schedule: Q01DX001 (ip), vehicle: saline with Tween-80) was 103 % of control.

Consider `C[N+]1=C(/C=C/Nc2cccc(N/C=C/C3=[N+](C)c4ccccc4C3(C)C)c2)C(C)(C)c2ccccc21`, for which the T/C reads like this: (dose: 12.5 mg/kg/injection, schedule: Q01DX005 (ip), vehicle: Klucel (hydroxypropylcellulose) (HPC)) 97 % of control; (dose: 25.0 mg/kg/injection, schedule: Q01DX005 (ip), vehicle: Klucel (hydroxypropylcellulose) (HPC)) 97 % of control; under setting [8], 105 % of control.

Turning to `CC1OC(C)C(O)C2=C1C(=O)c1ccccc1C2=O` (stereo unspecified), the T/C under setting [9] was 100 % of control and the T/C under setting [10] is 100 % of control.

Turning to `Cn1c2ccccc2c2nnc(N/N=C/c3ccc(Cl)cc3)nc21`, the T/C under setting [11] was 88 % of control; the T/C (dose: 200.0 mg/kg/injection, schedule: Q04DX002 (ip), vehicle: saline with Tween-80) was 87 % of control; the T/C (dose: 400.0 mg/kg/injection, schedule: Q04DX002 (ip), vehicle: saline with Tween-80) is 98 % of control.

Take `CC(C)=C(Nc1ccccc1)NC(C)C`: the T/C by setting is: (dose: 6.25 mg/kg/injection, schedule: Q01DX005 (ip), vehicle: saline) 103 % of control; (dose: 12.5 mg/kg/injection, schedule: Q01DX005 (ip), vehicle: saline) 103 % of control and 104 % of control; (dose: 25.0 mg/kg/injection, schedule: Q01DX005 (ip), vehicle: saline) 106 % of control and 120 % of control; (dose: 50.0 mg/kg/injection, schedule: Q01DX005 (ip), vehicle: saline) 118 % of control.

In the case of `CCN(CC)[P+](c1cc(OC)ccc1OC)(N(CC)CC)N(CC)CC`, the T/C runs as follows: (dose: 1.56 mg/kg/injection, schedule: Q01DX009 (ip), vehicle: Klucel (hydroxypropylcellulose) (HPC)) 121 % of control; (dose: 3.13 mg/kg/injection, schedule: Q01DX009 (ip), vehicle: Klucel (hydroxypropylcellulose) (HPC)) 106 % of control; under setting [7], 91 % of control.

On to `CCOC(=O)COc1ccc(/C=C(\C)[N+](=O)[O-])c2ccccc12`, for which the T/C under setting [12] is 99 % of control, the T/C under setting [13] was 91 % of control and the T/C under setting [14] was 100 % of control.

For `CC(=O)N(Cc1cnc2nc(N)[nH]c(=O)c2n1)c1ccc(C(=O)NC(CCC(=O)O)C(=O)O)cc1` (stereo unspecified), the T/C runs as follows: under setting [3], 90 % of control; under setting [4], 100 % of control; under setting [5], 101 % of control and 104 % of control.

For `COc1ccc(-c2cnc(=O)[nH]c2N)cc1`, the T/C is, setting by setting: (dose: 60.0 mg/kg/injection, schedule: Q01DX005 (ip), vehicle: suspension in saline) 99 % of control; (dose: 120.0 mg/kg/injection, schedule: Q01DX005 (ip), vehicle: suspension in saline) 97 % of control; (dose: 240.0 mg/kg/injection, schedule: Q01DX005 (ip), vehicle: suspension in saline) 105 % of control.

`NS(=O)(=O)c1ccc(N=Cc2c3ccccc3nc3cc(Cl)ccc23)cc1`: the T/C is 91 % of control under setting [6], 88 % of control under setting [15] and 88 % of control under setting [16].

With `O=C1N(Cl)C(=O)C2(c3ccccc3-c3ccccc32)N1Cl`, the T/C is 100 % of control under setting [8] and 108 % of control (dose: 100.0 mg/kg/injection, schedule: Q01DX005 (ip), vehicle: Klucel (hydroxypropylcellulose) (HPC)).

Take `CCCCCCOC(=O)C(O)c1ccccc1` (stereo unspecified): the T/C was 100 % of control under setting [13] and 109 % of control under setting [14].

Consider `CCn1c(=O)c2n[nH]nc2n(C2CC2)c1=O`, for which the T/C is 92 % of control under setting [4]; 96 % of control under setting [5]; 105 % of control (dose: 200.0 mg/kg/injection, schedule: Q01DX009 (ip), vehicle: saline).

Turning to `N#CC(Cl)CNC(=O)Oc1ccccc1` (stereo unspecified), the T/C under setting [8] is 97 % of control.

On to `Cc1ccc(N2C(=O)N(c3ccc(C)cc3)C3(Sc4ccccc4N3C)C2=O)cc1` (stereo unspecified), for which the T/C runs as follows: (dose: 25.0 mg/kg/injection, schedule: Q04DX002 (ip), vehicle: saline with Tween-80) 95 % of control; (dose: 50.0 mg/kg/injection, schedule: Q04DX002 (ip), vehicle: saline with Tween-80) 92 % of control; under setting [11], 89 % of control.

Turning to `COc1c2occc2c(N=Cc2c[nH]c3ccccc23)c2ccc(=O)oc12`, the T/C runs as follows: under setting [6], 92 % of control; under setting [15], 93 % of control; under setting [16], 86 % of control.

Take `O=[N+]([O-])C1(Br)COC(c2cccc(O)c2)OC1` (stereo unspecified): the T/C is, setting by setting: (dose: 3.12 mg/kg/injection, schedule: Q01DX009 (ip), vehicle: saline with Tween-80) 99 % of control; (dose: 6.25 mg/kg/injection, schedule: Q01DX009 (ip), vehicle: saline with Tween-80) 97 % of control; (dose: 12.5 mg/kg/injection, schedule: Q01DX009 (ip), vehicle: saline with Tween-80) 111 % of control and 94 % of control.

With `Nc1cnc2ccccn12`, the T/C by setting is: under setting [12], 97 % of control; under setting [13], 102 % of control.

As for `CC1=CC2=C(C#N)C(=O)OC2(C)C(c2ccccc2)C1` (stereo unspecified), the T/C under setting [9] was 100 % of control, the T/C under setting [10] was 101 % of control and the T/C under setting [17] was 100 % of control.

As to `COC1CC(OC2CCC3(C)C(=CCC4C3C(OC(C)=O)C(OC(=O)CC(C)C)C3(C)C(C(C)=O)CCC43O)C2)OC(C)C1OC1CC(OC)C(OC2CC(OC)C(OC3OC(C)C(O)C(OC)C3O)C(C)O2)C(C)O1` (stereo unspecified), the T/C (dose: 4.13 mg/kg/injection, schedule: Q01DX005 (ip), vehicle: Klucel (hydroxypropylcellulose) (HPC)) is 87 % of control and the T/C (dose: 8.25 mg/kg/injection, schedule: Q01DX005 (ip), vehicle: Klucel (hydroxypropylcellulose) (HPC)) was 101 % of control.

Regarding `O=C1CCC(c2nc3ccccc3[nH]2)N1Cc1ccc(Cl)cc1` (stereo unspecified), the T/C runs as follows: under setting [9], 108 % of control; under setting [10], 90 % of control; under setting [17], 86 % of control.
